Values of other authors as cited in patent US12478612B2 (CinDome Pharma, Inc., priority 2017, dated 2025).
Like-named read-outs stand apart in the source and are kept apart here.

How the values were obtained:
[1] = test system: Human plasma protein
[2] = weak base

| pKa [2] | Molecule | Human plasma protein binding ([1]; 10 ng/ml tritiated domperidone) [%] | Human plasma protein binding ([1]; 100 ng/ml tritiated domperidone) [%] |
| --- | --- | --- | --- |
|  | 5-chloro-1-(1-[3-(2-oxo-2,3-dihydro-1H-benzo[d]imidazol-1-yl)propyl]piperidin-4-yl)-1H-benzo[d]imidazol-2(3H)-one [Domperidone] | 91.7 | 93.0 |
| 7.89 | O=c1[nH]c2ccccc2n1CCCN1CCC(n2c(=O)[nH]c3cc(Cl)ccc32)CC1 [Domperidone, 5-chloro-1-(1-[3-(2-oxo-2,3-dihydro-1H-benzo[d]imidazol-1-yl)propyl]piperidin-4-yl)-1H-benzo[d]imidazol-2(3H)-one] |  |  |
